PMC12348660, “Synthesis, Characterization, HSA/DNA Binding, and Cytotoxic Activity of [RuCl2(η^6-p-cymene)(bph-κN)] Complex” (Molecules, 2025)

Target: T1, human serum albumin (HSA) (Homo sapiens, UniProt P02768)
T1 construct: gene ALB
Test: intrinsic tryptophan fluorescence quenching titration (Stern-Volmer, double-log), […]-310 K
Type: binding
Details: read-out: Kb [M^-1] (converted)

T1 sequence (P02768 25-609): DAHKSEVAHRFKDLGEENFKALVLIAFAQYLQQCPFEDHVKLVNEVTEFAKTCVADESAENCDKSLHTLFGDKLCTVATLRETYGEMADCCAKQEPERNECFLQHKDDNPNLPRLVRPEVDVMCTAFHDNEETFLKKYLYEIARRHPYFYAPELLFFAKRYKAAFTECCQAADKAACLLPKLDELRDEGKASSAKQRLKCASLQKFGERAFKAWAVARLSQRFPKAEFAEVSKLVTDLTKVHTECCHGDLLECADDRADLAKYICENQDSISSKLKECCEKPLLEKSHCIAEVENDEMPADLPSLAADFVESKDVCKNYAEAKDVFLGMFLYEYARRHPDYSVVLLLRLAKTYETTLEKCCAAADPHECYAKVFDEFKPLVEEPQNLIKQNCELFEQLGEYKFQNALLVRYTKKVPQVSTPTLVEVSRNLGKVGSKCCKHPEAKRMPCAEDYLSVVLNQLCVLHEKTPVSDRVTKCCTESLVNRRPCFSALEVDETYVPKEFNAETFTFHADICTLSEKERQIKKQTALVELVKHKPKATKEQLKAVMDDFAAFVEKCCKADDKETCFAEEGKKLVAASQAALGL

dichlorido((diphenylmethylidene)hydrazine-κN)(η^6-p-cymene)ruthenium(II) [compound 1]
Kd: 60.6 µM
